Experimental data reported in ChEMBL document CHEMBL5252606, “Isolation and Characterization of Anti-Mycobacterial Natural Products from a Petrosia sp. Marine Sponge” (J Nat Prod, 2023).
≈ marks a conversion by molar mass, not a printed value. Calls of active or inactive are those of the source. No cut-off for these calls is given here.

Columns and labels:
[1] = system: Mycobacterium tuberculosis; assay: Antitubercular activity against Mycobacterium tuberculosis H37Rv assessed as inhibition of bacterial growth by alamar blue assay; assay type: functional
[2] = system: Mycobacterium tuberculosis; assay: Antitubercular activity against Mycobacterium tuberculosis expressing luxCDABE operon assessed as inhibition of bacterial growth under hypoxic conditions by low oxygen recovery assay; assay type: functional
[3] = system: Mycobacterium tuberculosis; assay: Antitubercular activity against Mycobacterium tuberculosis H37Rv assessed as inhibition of bacterial growth at 25 ug/ml by alamar blue assay; assay type: functional, organism-based; conditions: dose 25.0 µg/ml
[4] = Cytotoxicity against African green monkey Vero cells assessed as inhibition of cell growth incubated for 3 days by resazurin based fluorescence assay; assay type: toxicity; conditions: African green monkey (Chlorocebus sabaeus)
Mycobacterium avium = assay: Antitubercular activity against Mycobacterium avium ATCC 15769 assessed as inhibition of bacterial growth incubated for 24 hrs by resazurin based fluorescence assay; assay type: functional, organism-based
MCF7 = assay: Cytotoxicity against human MCF7 cells; assay type: functional, cell-based
HeLa = assay: Cytotoxicity against human HeLa cells; assay type: functional, cell-based
A549 = assay: Cytotoxicity against human A549 cells; assay type: functional, cell-based
[5] = system: Mycobacteroides abscessus; assay: Antitubercular activity against Mycobacterium abscessus ATCC 19977 assessed as inhibition of bacterial growth incubated for 4 hrs by resazurin based fluorescence assay; assay type: functional, organism-based
HCT-8 = assay: Cytotoxicity against human HCT-8 cells; assay type: functional, cell-based
P388 = assay: Cytotoxicity against mouse P388 cells; assay type: functional, cell-based

| Structure (SMILES) | MIC [1] | MIC [2] | Activity [3] | also measured |
| --- | --- | --- | --- | --- |
| CO[C@H]1/C=C/O[C@@]2(C)Oc3c(C)c(O)c4c(O)c(c(/C=N/N5CCN(C)CC5)c(O)c4c3C2=O)NC(=O)/C(C)=C\C=C\[C@H](C)[C@H](O)[C@@H](C)[C@@H](O)[C@@H](C)[C@H](OC(C)=O)[C@@H]1C [RIFAMPIN] | 0.04 µM (≈ 0.0329 µg/mL) | 0.09 µM (≈ 0.0741 µg/mL) | – | – |
| COc1ccc2c(c1)C[C@H]1[C@]3(C)CC[C@H]4[C@@]5(C)CCC[C@]4(CO[C@@H]5O)[C@H]3CC[C@]1(C)O2 | – | – | inactive | – |
| C[C@]12CCC[C@](C)(C(=O)O)[C@@H]1CC[C@]1(C)[C@@H]2CC[C@]2(C)Oc3ccc(O)cc3C[C@@H]12 | – | – | inactive | – |
| CCO[C@@H]1OC[C@]23CCC[C@]1(C)[C@@H]2CC[C@]1(C)[C@@H]3CC[C@]2(C)Oc3ccc(OC)cc3C[C@@H]12 | – | – | inactive | – |
| O=[N+]([O-])c1cn2c(n1)OC[C@@H](OCc1ccc(OC(F)(F)F)cc1)C2 [PRETOMANID] | 0.2 µM (≈ 0.0719 µg/mL) | 2 µM (≈ 0.719 µg/mL) | – | – |
| C[C@]12CCC[C@](C)(C=O)[C@@H]1CC[C@]1(C)[C@@H]2CC[C@]2(C)Oc3ccc(O)cc3C[C@@H]12 | – | – | inactive | – |
| COc1ccc2c(c1)C[C@H]1[C@]3(C)CC[C@H]4[C@@]5(C)CCC[C@]4(CO[C@H]5O)[C@H]3CC[C@]1(C)O2 | – | – | inactive | – |
| C#CC(O)/C=C/CCCCCCCCC/C=C\CCCCCCCCC/C=C/C(O)C#C (configuration not stated) | 1.4 µM (≈ 0.617 µg/mL) | 1 µM (≈ 0.441 µg/mL) | – | IC50 at 3 days [4]: 400 nM; Activity (Mycobacterium avium): inactive; IC50 (MCF7): 200 nM; IC50 (HeLa): 200 nM; IC50 (A549): 200 nM; Activity [5]: inactive; IC50 (HCT-8): 200 nM; IC50 (P388): 200 nM |
| COc1nc2ccc(Br)cc2cc1[C@@H](c1ccccc1)[C@@](O)(CCN(C)C)c1cccc2ccccc12 [BEDAQUILINE] | 0.03 µM (≈ 0.0167 µg/mL) | 0.1 µM (≈ 0.0556 µg/mL) | – | – |
| COc1ccc2c(c1)C[C@H]1[C@]3(C)CC[C@@H]4[C@]5(CCC[C@@]4(C)C(=O)OC5)[C@H]3CC[C@]1(C)O2 | – | – | inactive | – |
| CC(=O)NC[C@H]1CN(c2ccc(N3CCOCC3)c(F)c2)C(=O)O1 [LINEZOLID] | 1 µM (≈ 0.337 µg/mL) | 1.7 µM (≈ 0.573 µg/mL) | – | – |
| COc1ccc2c(c1)C[C@H]1[C@]3(C)CC[C@@H]4[C@](C)(CCC[C@]4(C)C(=O)O)[C@H]3CC[C@]1(C)O2 | – | – | inactive | – |
| NNC(=O)c1ccncc1 [ISONIAZID] | 0.2 µM (≈ 0.0274 µg/mL) | > 128 µM | – | – |
